From patent US8278345B2, “Inhibitors of glutaminyl cyclase” (Probiodrug AG, priority 2006, dated 2012)
Read-outs that look alike come from different tables or passages of the source.

Biological target: hQC (Homo sapiens, UniProt Q16769)
Test: Inhibitor assay for glutaminyl cyclase activity (fluorometric, H-Gln-βNA / H-Gln-AMC)
Format: biochemical
Method in brief: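 Ki values came from fitting progress curves to a competitive inhibition model; rapid screens used 4 mM inhibitor with substrate at KM. QC activity was read at 30 °C via auxiliary pyroglutamyl aminopeptidase releasing βNA (0.2 mM H-Gln-βNA, 0.2 M Tris pH 8.0, 20 mM EDTA) or AMC (0.05 M Tris pH 8.0, 5 mM EDTA).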

[1] = compound from preparative synthesis, purified, read-out: IC50 hQC

hQC, sequence (Q16769 29-361): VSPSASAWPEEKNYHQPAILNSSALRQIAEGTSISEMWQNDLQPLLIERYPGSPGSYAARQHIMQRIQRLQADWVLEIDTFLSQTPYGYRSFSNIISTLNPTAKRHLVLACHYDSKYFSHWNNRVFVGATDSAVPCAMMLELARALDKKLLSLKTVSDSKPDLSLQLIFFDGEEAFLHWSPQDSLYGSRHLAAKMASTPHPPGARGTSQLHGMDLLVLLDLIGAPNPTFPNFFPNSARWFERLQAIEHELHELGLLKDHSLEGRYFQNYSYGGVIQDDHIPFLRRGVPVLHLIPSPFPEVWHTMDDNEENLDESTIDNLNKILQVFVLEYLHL

SMILES | IC50 (read-out: IC50) | IC50 [1] | Ki (compound from preparative synthesis, purified)
CCCCCC(=O)C1=C(O)C(=O)N(c2ccc3[nH]cnc3c2)C1C1CCOC1 (stereo not shown) [Compound 274, 1-(1H-Benzoimidazol-5-yl)-4-hexanoyl-3-hydroxy-5-(tetrahydro-furan-3-yl)-1,5-dihydro-pyrrol-2-one] | 2470 nM |  | 
CC1=C(O)C(=O)N(CCCn2ccnc2)C1c1ccccc1 (stereo not shown) [Compound 34, 3-Hydroxy-1-(3-imidazol-1-yl-propyl)-4-methyl-5-phenyl-1,5-dihydro-pyrrol-2-one] | 1300 nM |  | 
CCCCCC1=C(O)C(=O)N(CCCn2ccnc2)C1CCC (stereo not shown) [Compound 187, 3-Hydroxy-1-(3-imidazol-1-yl-propyl)-4-pentyl-5-propyl-1,5-dihydro-pyrrol-2-one] | 40 nM |  | 
CC1=C(O)C(=O)N(CCCn2ccnc2)C1c1cc(Cl)cc(Cl)c1O (stereo not shown) [Compound 20, 5-(3,5-Dichloro-2-hydroxy-phenyl)-3-hydroxy-1-(3-imidazol-1-yl-propyl)-4-methyl-1,5-dihydro-pyrrol-2-one] | 400 nM |  | 
CCCCCC1=C(O)C(=O)N(CCCn2ccnc2)C1c1ccc(O)cc1 (stereo not shown) [Compound 218, 3-Hydroxy-5-(4-hydroxy-phenyl)-1-(3-imidazol-1-yl-propyl)-4-pentyl-1,5-dihydro-pyrrol-2-one] | 40 nM | 613 nM | 
O=C(C1=C(O)C(=O)N(c2ccc3[nH]cnc3c2)C1c1ccc(CO)o1)C1CCCCC1 (stereo not shown) [Compound 303, 1-(1H-Benzoimidazol-5-yl)-4-cyclohexanecarbonyl-3-hydroxy-5-(5-hydroxymethyl-furan-2-yl)-1,5-dihydro-pyrrol-2-one] | 400 nM |  | 
CC1=C(O)C(=O)N(c2ccc3[nH]cnc3c2)C1c1cccc(C)c1 (stereo not shown) [Compound 416, 1-(1H-Benzoimidazol-5-yl)-3-hydroxy-4-methyl-5-m-tolyl-1,5-dihydro-pyrrol-2-one] | 9940 nM |  | 
CC(=O)C1=C(O)C(=O)N(c2ccc3[nH]cnc3c2)C1c1cc(Br)c(O)c(Br)c1 (stereo not shown) [Compound 414, 4-Acetyl-1-(1H-benzoimidazol-5-yl)-5-(3,5-dibromo-4-hydroxy-phenyl)-3-hydroxy-1,5-dihydro-pyrrol-2-one] | 2380 nM |  | 
O=C1C(O)=C(c2ccccc2)C(c2cccc3cccnc23)N1c1ccc2[nH]cnc2c1 (stereo not shown) [Compound 267, 1-(1H-Benzoimidazol-5-yl)-3-hydroxy-4-phenyl-5-quinolin-8-yl-1,5-dihydro-pyrrol-2-one] | 7510 nM |  | 
CC(C)(C)C(=O)C1=C(O)C(=O)N(c2ccc3[nH]cnc3c2)C1c1nccs1 (stereo not shown) [Compound 402, 1-(1H-Benzoimidazol-5-yl)-4-(2,2-dimethyl-propionyl)-3-hydroxy-5-thiazol-2-yl-1,5-dihydro-pyrrol-2-one] | 6340 nM |  | 
CC1=C(O)C(=O)N(c2ccc3[nH]cnc3c2)C1c1ccc(C(=O)O)o1 (stereo not shown) [Compound 399, 5-[1-(1H-Benzoimidazol-5-yl)-4-hydroxy-3-methyl-5-oxo-2,5-dihydro-1H-pyrrol-2-yl]-furan-2-carboxylic acid] | 1390 nM |  | 
O=C1C(O)=C(c2c[nH]c3ccccc23)C(C2=CCCCC2)N1CCCn1ccnc1 (stereo not shown) [Compound 129, 5-Cyclohex-1-enyl-3-hydroxy-1-(3-imidazol-1-yl-propyl)-4-(1H-indol-3-yl)-1,5-dihydro-pyrrol-2-one] | 400 nM |  | 
CC(=O)C1=C(O)C(=O)N(c2ccc3[nH]cnc3c2)C1c1cnc2ccccc2c1 (stereo not shown) [Compound 360, 4-Acetyl-1-(1H-benzoimidazol-5-yl)-3-hydroxy-5-quinolin-3-yl-1,5-dihydro-pyrrol-2-one] | 40 nM |  | 
O=C1C(O)=C(c2ccc(O)cc2)C(C2CC2)N1CCCn1ccnc1 (stereo not shown) [Compound 175, 5-Cyclopropyl-3-hydroxy-4-(4-hydroxy-phenyl)-1-(3-imidazol-1-yl-propyl)-1,5-dihydro-pyrrol-2-one] | 40 nM |  | 
O=C1C(O)=C(c2ccccc2)C(c2ccco2)N1CCCn1ccnc1 (stereo not shown) [Compound 106, 5-Furan-2-yl-3-hydroxy-1-(3-imidazol-1-yl-propyl)-4-phenyl-1,5-dihydro-pyrrol-2-one] | 40 nM |  | 
O=C1C(O)=C(c2c[nH]c3ccccc23)C(CO)N1CCCn1ccnc1 (stereo not shown) [Compound 138, 3-Hydroxy-5-hydroxymethyl-1-(3-imidazol-1-yl-propyl)-4-(1H-indol-3-yl)-1,5-dihydro-pyrrol-2-one] | 40 nM |  | 
CC1=C(O)C(=O)N(c2ccc3[nH]cnc3c2)C1c1cc(F)cc(F)c1F (stereo not shown) [Compound 407, 1-(1H-Benzoimidazol-5-yl)-3-hydroxy-4-methyl-5-(2,3,5-trifluoro-phenyl)-1,5-dihydro-pyrrol-2-one] | 220 nM |  | 
O=C1C(O)=C(c2ccccc2)C(Cc2ccccc2)N1CCCn1ccnc1 (stereo not shown) [Compound 99, 5-Benzyl-3-hydroxy-1-(3-imidazol-1-yl-propyl)-4-phenyl-1,5-dihydro-pyrrol-2-one] | 40 nM |  | 
O=C1C(O)=C(c2ccc(O)cc2)C(c2ccc3cccc(O)c3n2)N1c1ccc2[nH]cnc2c1 (stereo not shown) [Compound 391, 1-(1H-Benzoimidazol-5-yl)-3-hydroxy-4-(4-hydroxy-phenyl)-5-(8-hydroxy-quinolin-2-yl)-1,5-dihydro-pyrrol-2-one] | 40 nM |  | 

SMILES | IC50 (read-out: IC50) | IC50 [1] | Ki (compound from preparative synthesis, purified)
CCC1=C(O)C(=O)N(CCCn2ccnc2)C1C(O)CO (stereo not shown) [Compound 225, 5-(1,2-Dihydroxy-ethyl)-4-ethyl-3-hydroxy-1-(3-imidazol-1-yl-propyl)-1,5-dihydro-pyrrol-2-one] | 40 nM |  | 
Cc1ccc2occ(C3C(c4ccc(O)cc4)=C(O)C(=O)N3c3ccc4[nH]cnc4c3)c(=O)c2c1 (stereo not shown) [Compound 280, 1-(1H-Benzoimidazol-5-yl)-3-hydroxy-4-(4-hydroxy-phenyl)-5-(6-methyl-4-oxo-4H-chromen-3-yl)-1,5-dihydro-pyrrol-2-one] | 310 nM |  | 
CC(C)C1=C(O)C(=O)N(CCCn2ccnc2)C1c1ccccn1 (stereo not shown) [Compound 69, 3-Hydroxy-1-(3-imidazol-1-yl-propyl)-4-isopropyl-5-pyridin-2-yl-1,5-dihydro-pyrrol-2-one] | 4900 nM |  | 
CCC1=C(O)C(=O)N(c2ccc3[nH]cnc3c2)C1c1cc(Br)c(O)c(Br)c1 (stereo not shown) [Compound 288, 1-(1H-Benzoimidazol-5-yl)-5-(3,5-dibromo-4-hydroxy-phenyl)-4-ethyl-3-hydroxy-1,5-dihydro-pyrrol-2-one] | 2290 nM |  | 
CCC1=C(O)C(=O)N(c2ccc3[nH]cnc3c2)C1c1cc(C)c(C)o1 (stereo not shown) [Compound 340, 1-(1H-Benzoimidazol-5-yl)-5-(4,5-dimethyl-furan-2-yl)-4-ethyl-3-hydroxy-1,5-dihydro-pyrrol-2-one] | 3370 nM |  | 
O=C1C(O)=C(c2c[nH]c3ccccc23)C(c2cccc(O)c2)N1CCCn1ccnc1 (stereo not shown) [Compound 146, 3-Hydroxy-5-(3-hydroxy-phenyl)-1-(3-imidazol-1-yl-propyl)-4-(1H-indol-3-yl)-1,5-dihydro-pyrrol-2-one] | 400 nM |  | 
CCC1=C(O)C(=O)N(CCCn2ccnc2)C1/C=C/C(C)C (stereo not shown) [Compound 226, 4-Ethyl-3-hydroxy-1-(3-imidazol-1-yl-propyl)-5-(3-methyl-but-1-enyl)-1,5-dihydro-pyrrol-2-one] | 3100 nM |  | 
CC(C)C1=C(O)C(=O)N(CCCn2ccnc2)C1c1ccccc1 (stereo not shown) [Compound 65, 3-Hydroxy-1-(3-imidazol-1-yl-propyl)-4-isopropyl-5-phenyl-1,5-dihydro-pyrrol-2-one] | 3100 nM |  | 
CC1=C(O)C(=O)N(c2ccc3[nH]cnc3c2)C1c1cnc2ccccc2c1 (stereo not shown) [Compound 448, 1-(1H-Benzoimidazol-5-yl)-3-hydroxy-4-methyl-5-quinolin-3-yl-1,5-dihydro-pyrrol-2-one] | 1750 nM |  | 
O=C(C1=C(O)C(=O)N(c2ccc3[nH]cnc3c2)C1)C1CCCCC1 [Compound 441, 1-(1H-Benzoimidazol-5-yl)-4-cyclohexanecarbonyl-3-hydroxy-1,5-dihydro-pyrrol-2-one] | 850 nM |  | 
CC1=C(O)C(=O)N(c2ccc3nc[nH]c3c2)C1c1cccc(F)c1F (stereo not shown) [Compound 467, 1-(1H-benzo[d]imidazol-6-yl)-5-(2,3-difluorophenyl)-3-hydroxy-4-methyl-1H-pyrrol-2(5H)-one] | 52.6 nM |  | 11.6 nM
CCCC1C(c2ccccc2)=C(O)C(=O)N1CCCn1ccnc1 (stereo not shown) [Compound 80, 3-Hydroxy-1-(3-imidazol-1-yl-propyl)-4-phenyl-5-propyl-1,5-dihydro-pyrrol-2-one] | 400 nM |  | 
CC(=O)C1=C(O)C(=O)N(c2ccc3[nH]cnc3c2)C1c1cccc(C)c1 (stereo not shown) [Compound 283, 4-Acetyl-1-(1H-benzoimidazol-5-yl)-3-hydroxy-5-m-tolyl-1,5-dihydro-pyrrol-2-one] | 400 nM |  | 
Cc1ccc2c(C3C(c4ccccc4)=C(O)C(=O)N3CCCn3ccnc3)c[nH]c2c1 (stereo not shown) [Compound 95, 3-Hydroxy-1-(3-imidazol-1-yl-propyl)-5-(6-methyl-1H-indol-3-yl)-4-phenyl-1,5-dihydro-pyrrol-2-one] | 40 nM |  | 
O=C1C(O)=C(c2c[nH]c3ccccc23)C(C2CCC=CO2)N1CCCn1ccnc1 (stereo not shown) [Compound 128, 5-(3,4-Dihydro-2H-pyran-2-yl)-3-hydroxy-1-(3-imidazol-1-yl-propyl)-4-(1H-indol-3-yl)-1,5-dihydro-pyrrol-2-one] | 40 nM | 804 nM | 
CCCC(=O)C1=C(O)C(=O)N(c2ccc3[nH]cnc3c2)C1c1ccc2cccc(O)c2n1 (stereo not shown) [Compound 368, 1-(1H-Benzoimidazol-5-yl)-4-butyryl-3-hydroxy-5-(8-hydroxy-quinolin-2-yl)-1,5-dihydro-pyrrol-2-one] | 4 nM |  | 
O=C1C(O)=C(c2ccccc2)C(c2cc[nH]n2)N1CCCn1ccnc1 (stereo not shown) [Compound 81, 3-Hydroxy-1-(3-imidazol-1-yl-propyl)-4-phenyl-5-(1H-pyrazol-3-yl)-1,5-dihydro-pyrrol-2-one] | 3100 nM |  | 
CCCC1C(c2c[nH]c3ccccc23)=C(O)C(=O)N1CCCn1ccnc1 (stereo not shown) [Compound 115, 3-Hydroxy-1-(3-imidazol-1-yl-propyl)-4-(1H-indol-3-yl)-5-propyl-1,5-dihydro-pyrrol-2-one] | 400 nM |  | 
